Test results: US11484539B2, “Compounds and their uses for alleviating menopause-associated symptoms” (Estetra SPRL, priority 2018, dated 2022)

Tested on: post-menopausal women
Test: Weekly frequency of moderate to severe VMS, dose-finding study
Assay type: in vivo
Conditions: for Difference with placebo, LS adjusted mean, absolute change in weekly frequency of moderate to severe VMS / Difference with placebo, LS adjusted mean, relative change in weekly frequency of moderate to severe VMS: 2.5 mg E4 vs placebo
Excerpt: To determine the Minimum Effective Dose (MED), firstly the selection criteria required that patients presented at least 7 moderate to severe VMS/day or at least 50 moderate to severe VMS/week in the week preceding randomization. Secondly, a placebo group was included in a double-blind fashion. Thirdly, the total patient number was such that statistical significance could be obtained between separate arms of the study. Fourthly, the absolute change from baseline in weekly frequency of moderate to severe VMS was taken into account. An analysis of covariance (ANCOVA) was performed based on the untransformed change in weekly frequency of moderate to severe VMS from baseline. Finally, the change in severity from baseline was evaluated. For this, the Severity Scoring System of VMS was documented by the subjects as follows: • a score of Mild (1) for a sensation of heat without sweating; • a score of Moderate (2) for a sensation of heat with sweating/the subject is able to continue activity; and • a score of Severe (3) for a sensation of heat with sweating/which causes cessation of activity.
Enrolment was approximately 18 months. Individual subject participation was up to 27 weeks: up to 6 weeks pre-screening and washout, up to 4 weeks screening and run-in period, up to 91 days (13 weeks) of E4/placebo treatment followed by 2 weeks (14 days) of progestin therapy and a Follow up visit 1 week after completion of progestin therapy in non-hysterectomised subjects only.
To define the minimum effective dose (MED) of the oral dose of E4 by evaluating changes in frequency and in severity of moderate to severe vasomotor symptoms (VMS).
This was a prospective, multicentre, randomised, placebo-controlled, double-blinded, dose-finding study.
Eligible subjects were hysterectomised and non-hysterectomised post-menopausal women aged 40 to 65 years, inclusive, presenting at least 7 moderate to severe hot flushes/day or at least 50 moderate to severe hot flushes/week.
The subjects have met all of the following inclusion criteria at the randomization visit. These criteria were assessed during the screening period: • 1. Women aged 40 to 65 years, inclusive, presenting at least 7 moderate to severe hot flushes/day or at least 50 moderate to severe hot flushes/week in the week preceding randomization. • 2. Body Mass Index (BMI) between 18.0 and 35.0 kg/m^2, inclusive. • 3. Post-menopausal status defined as levels of follicle stimulating hormone (FSH) >40 IU/L and: • amenorrhoea for at least 12 consecutive months or, • amenorrhoea for at least 6 months with estradiol (E2)<20 pg/mL or, • at least 6 weeks post-surgical bilateral oophorectomy with or without hysterectomy with a copy of the pathology report or a statement on letterhead from the subject's physician documenting both ovaries were removed is required. • 4. For non-hysterectomised women: intact uterus with bi-layer endometrial thickness […] on TVUS. • 5. Negative pregnancy test. • 6. Good physical and mental health, in the judgement of the Principal Investigator (PI), on the basis of medical, surgical and gynaecological history, physical examination, gynaecological examination, clinical laboratory, and vital signs. • 7. Subject has provided signed and dated written informed consent before admission to the study. • 8. Subject is able to understand and comply with the protocol requirements, instructions, and protocol-stated restrictions. Exclusion Criteria:
All treatments (Estetrol, hereinafter, E4, [2.5 mg, 5 mg, 10 mg, 15 mg] capsule) were administered once daily (QD) per os for at least 12 consecutive weeks until the last biological assessments (Day 91 maximum) had been performed.
In order to analyse the data recorded in this study, treatment groups have been compared using an ANCOVA (analysis of covariance) with respect to the change in weekly frequency of moderate to severe VMS from baseline to weeks 4 and 12. […]

[1] = 2.5 mg E4, week 4, ANCOVA with study centre
[2] = 2.5 mg E4, week 4, without site effect
[3] = 2.5 mg E4, week 12, ANCOVA with study centre
[4] = 2.5 mg E4, week 12, without site effect
[5] = week 4, ANCOVA with study centre
[6] = week 12, ANCOVA with study centre
[7] = 5 mg E4, week 4, ANCOVA with study centre
[8] = 5 mg E4, week 4, without site effect
[9] = 5 mg E4, week 12, ANCOVA with study centre
[10] = 5 mg E4, week 12, without site effect

C[C@]12CC[C@@H]3c4ccc(O)cc4CC[C@H]3[C@@H]1[C@@H](O)[C@@H](O)[C@@H]2O [E4, 1,3,5 (10)-estratrien-3,15alpha,16alpha,17beta-tetrol]
LS adjusted mean change from baseline in weekly frequency of moderate to severe VMS [1]: −32.26 | LS adjusted mean relative change (%) from baseline in weekly frequency of moderate to severe VMS [1]: -48.5% | LS adjusted mean change from baseline in weekly frequency of moderate to severe VMS [2]: −32.68 | LS adjusted mean relative change (%) from baseline in weekly frequency of moderate to severe VMS [2]: -49.5% | LS adjusted mean change from baseline in weekly frequency of moderate to severe VMS [3]: −40.13 | LS adjusted mean relative change (%) from baseline in weekly frequency of moderate to severe VMS [3]: -60.6% | LS adjusted mean change from baseline in weekly frequency of moderate to severe VMS [4]: −40.68 | LS adjusted mean relative change (%) from baseline in weekly frequency of moderate to severe VMS [4]: -62.2% | Mean change from baseline in weekly frequency of moderate to severe VMS (2.5 mg E4 QD per os, week 1): −17.28 | Relative change (% from baseline) in weekly frequency of moderate to severe VMS, mean (2.5 mg E4 QD per os, week 1): −23% | Mean change from baseline in weekly frequency of moderate to severe VMS (2.5 mg E4 QD per os, week 2): −25.10 | Relative change (% from baseline) in weekly frequency of moderate to severe VMS, mean (2.5 mg E4 QD per os, week 2): −34% | Mean change from baseline in weekly frequency of moderate to severe VMS (2.5 mg E4 QD per os, week 3): −32.46 | Relative change (% from baseline) in weekly frequency of moderate to severe VMS, mean (2.5 mg E4 QD per os, week 3): −44% | Mean change from baseline in weekly frequency of moderate to severe VMS (2.5 mg E4 QD per os, week 4): −35.89 | Relative change (% from baseline) in weekly frequency of moderate to severe VMS, mean (2.5 mg E4 QD per os, week 4): −49% | Mean change from baseline in weekly frequency of moderate to severe VMS (2.5 mg E4 QD per os, week 5): −37.16 | Relative change (% from baseline) in weekly frequency of moderate to severe VMS, mean (2.5 mg E4 QD per os, week 5): −50% | Mean change from baseline in weekly frequency of moderate to severe VMS (2.5 mg E4 QD per os, week 6): −39.98 | Relative change (% from baseline) in weekly frequency of moderate to severe VMS, mean (2.5 mg E4 QD per os, week 6): −54% | Mean change from baseline in weekly frequency of moderate to severe VMS (2.5 mg E4 QD per os, week 7): −42.44 | Relative change (% from baseline) in weekly frequency of moderate to severe VMS, mean (2.5 mg E4 QD per os, week 7): −57% | Mean change from baseline in weekly frequency of moderate to severe VMS (2.5 mg E4 QD per os, week 8): −43.62 | Relative change (% from baseline) in weekly frequency of moderate to severe VMS, mean (2.5 mg E4 QD per os, week 8): −58% | Mean change from baseline in weekly frequency of moderate to severe VMS (2.5 mg E4 QD per os, week 9): −45.19 | Relative change (% from baseline) in weekly frequency of moderate to severe VMS, mean (2.5 mg E4 QD per os, week 9): −61% | Mean change from baseline in weekly frequency of moderate to severe VMS (2.5 mg E4 QD per os, week 10): −45.54 | Relative change (% from baseline) in weekly frequency of moderate to severe VMS, mean (2.5 mg E4 QD per os, week 10): −61% | Mean change from baseline in weekly frequency of moderate to severe VMS (2.5 mg E4 QD per os, week 11): −44.74 | Relative change (% from baseline) in weekly frequency of moderate to severe VMS, mean (2.5 mg E4 QD per os, week 11): −60% | Mean change from baseline in weekly frequency of moderate to severe VMS (2.5 mg E4 QD per os, week 12): −45.04 | Relative change (% from baseline) in weekly frequency of moderate to severe VMS, mean (2.5 mg E4 QD per os, week 12): −61% | Difference with placebo, LS adjusted mean, absolute change in weekly frequency of moderate to severe VMS [5]: 1.536 | Difference with placebo, LS adjusted mean, relative change in weekly frequency of moderate to severe VMS [5]: 0.005984 | Difference with placebo, LS adjusted mean, absolute change in weekly frequency of moderate to severe VMS (week 4, without site effect): 0.9721 | Difference with placebo, LS adjusted mean, relative change in weekly frequency of moderate to severe VMS (week 4, without site effect): −0.005455 | Difference with placebo, LS adjusted mean, absolute change in weekly frequency of moderate to severe VMS [6]: 3.603 | Difference with placebo, LS adjusted mean, relative change in weekly frequency of moderate to severe VMS [6]: 0.03673 | Difference with placebo, LS adjusted mean, absolute change in weekly frequency of moderate to severe VMS (week 12, without site effect): 3.246 | Difference with placebo, LS adjusted mean, relative change in weekly frequency of moderate to severe VMS (week 12, without site effect): 0.02897 | LS adjusted mean change from baseline in weekly frequency of moderate to severe VMS [7]: −27.44 | LS adjusted mean relative change (%) from baseline in weekly frequency of moderate to severe VMS [7]: -42.2% | LS adjusted mean change from baseline in weekly frequency of moderate to severe VMS [8]: −27.87 | LS adjusted mean relative change (%) from baseline in weekly frequency of moderate to severe VMS [8]: -43.1% | LS adjusted mean change from baseline in weekly frequency of moderate to severe VMS [9]: −40.68 | LS adjusted mean relative change (%) from baseline in weekly frequency of moderate to severe VMS [9]: -60.3% | LS adjusted mean change from baseline in weekly frequency of moderate to severe VMS [10]: −41.01 | LS adjusted mean relative change (%) from baseline in weekly frequency of moderate to severe VMS [10]: -61.4% | Mean change from baseline in weekly frequency of moderate to severe VMS (5 mg E4 QD per os, week 1): −15.04 | Relative change (% from baseline) in weekly frequency of moderate to severe VMS, mean (5 mg E4 QD per os, week 1): −23% | Mean change from baseline in weekly frequency of moderate to severe VMS (5 mg E4 QD per os, week 2): −21.68
